The source made the active and inactive calls. The calls are words filed in the database; no cut-off is given here. *1 amine or outer side, *2 acyl side, *3 side chain or, on linkers, in order; H or OH if unused. Where a SMILES comes first, the peptide text is derived from it. The star is where a group is joined. AMC = Cc1cc(=O)oc2cc(N*)ccc12; Suc = O=C(CCC(=O)[*:2])[*:1]; Decanoyl = CCCCCCCCCC(=O)*
Experiments:
[1] = target: NAD-dependent protein deacylase sirtuin-5, mitochondrial (Homo sapiens) (UniProt Q9NXA8); assay: Substrate activity at human N-terminal His-tagged SIRT5 (34 to 302 residues) expressed in Escherichia coli at 5 uM measured after 1 hr in presence of NAD+ and trypsin by fluorescence assay
[2] = target: T1, NAD-dependent protein deacetylase sirtuin-3, mitochondrial (Homo sapiens) (UniProt Q9NTG7); assay: Substrate activity at human N-terminal His-tagged SIRT3 (122 to 391 residues) expressed in Escherichia coli at 0.5 uM measured after 2 hrs in presence of NAD+ and trypsin by fluorescence assay
T1 sequence (whole entry): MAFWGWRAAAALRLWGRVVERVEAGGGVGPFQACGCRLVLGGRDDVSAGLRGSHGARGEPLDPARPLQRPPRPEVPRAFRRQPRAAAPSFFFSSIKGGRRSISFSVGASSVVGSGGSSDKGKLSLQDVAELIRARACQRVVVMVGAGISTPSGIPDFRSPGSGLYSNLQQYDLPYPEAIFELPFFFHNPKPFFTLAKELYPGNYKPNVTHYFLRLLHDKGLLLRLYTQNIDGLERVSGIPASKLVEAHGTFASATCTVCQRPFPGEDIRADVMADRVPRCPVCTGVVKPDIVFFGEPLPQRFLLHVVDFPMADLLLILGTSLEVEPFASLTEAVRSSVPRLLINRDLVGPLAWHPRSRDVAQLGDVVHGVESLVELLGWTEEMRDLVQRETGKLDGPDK

[3] = target: T2, NAD-dependent protein deacetylase sirtuin-7 (Homo sapiens) (UniProt Q9NRC8); assay: Substrate activity at human N-terminal His-tagged SIRT7 (68 to 354 residues) expressed in Escherichia coli at 5 uM measured after 2 hrs in presence of NAD+ and trypsin by fluorescence assay
T2 sequence (whole entry): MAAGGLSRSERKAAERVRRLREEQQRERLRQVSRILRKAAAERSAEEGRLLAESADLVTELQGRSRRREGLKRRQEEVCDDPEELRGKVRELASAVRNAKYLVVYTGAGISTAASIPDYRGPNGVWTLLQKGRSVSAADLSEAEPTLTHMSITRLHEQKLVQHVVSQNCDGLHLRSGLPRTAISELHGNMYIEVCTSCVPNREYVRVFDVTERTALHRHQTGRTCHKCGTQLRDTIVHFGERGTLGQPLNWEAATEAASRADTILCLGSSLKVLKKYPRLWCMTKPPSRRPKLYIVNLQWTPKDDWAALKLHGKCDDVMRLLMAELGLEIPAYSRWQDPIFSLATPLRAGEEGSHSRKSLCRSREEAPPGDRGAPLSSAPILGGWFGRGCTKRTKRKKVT

[4] = target: T1, NAD-dependent protein deacetylase sirtuin-3, mitochondrial (Homo sapiens); assay: Substrate activity at human N-terminal His-tagged SIRT3 (122 to 391 residues) expressed in Escherichia coli at 5 uM measured after 2 hrs in presence of NAD+ and trypsin by fluorescence assay
[5] = target: T2, NAD-dependent protein deacetylase sirtuin-7 (Homo sapiens); assay: Substrate activity at human N-terminal His-tagged SIRT7 (68 to 354 residues) expressed in Escherichia coli at 50 uM measured after 2 hrs in presence of NAD+ and trypsin by fluorescence assay
[6] = target: NAD-dependent protein deacylase sirtuin-6 (Homo sapiens) (UniProt Q8N6T7); assay: Substrate activity at human N-terminal His-tagged SIRT6 (1 to 355 residues) expressed in Escherichia coli at 5 uM measured after 2 hrs in presence of NAD+ and trypsin by fluorescence assay
[7] = target: NAD-dependent protein deacylase sirtuin-6 (Homo sapiens) (UniProt Q8N6T7); assay: Substrate activity at human N-terminal His-tagged SIRT6 (1 to 355 residues) expressed in Escherichia coli at 50 uM measured after 2 hrs in presence of NAD+ and trypsin by fluorescence assay
[8] = target: T3, NAD-dependent protein deacetylase sirtuin-2 (Homo sapiens) (UniProt Q8IXJ6); assay: Substrate activity at human N-terminal His-tagged SIRT2 (56 to 356 residues) expressed in Escherichia coli at 5 uM measured after 2 hrs in presence of NAD+ and trypsin by fluorescence assay
T3 sequence (whole entry): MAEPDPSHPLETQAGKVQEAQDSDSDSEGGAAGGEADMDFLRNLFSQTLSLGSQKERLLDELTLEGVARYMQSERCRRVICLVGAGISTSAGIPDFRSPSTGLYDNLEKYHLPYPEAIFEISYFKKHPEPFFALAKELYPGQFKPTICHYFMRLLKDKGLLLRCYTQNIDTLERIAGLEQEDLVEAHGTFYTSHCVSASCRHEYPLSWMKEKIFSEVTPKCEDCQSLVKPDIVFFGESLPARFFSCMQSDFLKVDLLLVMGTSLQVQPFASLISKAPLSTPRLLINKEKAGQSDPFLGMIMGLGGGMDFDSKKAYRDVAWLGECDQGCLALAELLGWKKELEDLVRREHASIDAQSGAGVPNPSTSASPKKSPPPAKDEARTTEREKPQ

[9] = target: T4, NAD-dependent protein deacetylase sirtuin-1 (Homo sapiens) (UniProt Q96EB6); assay: Substrate activity at human N-terminal His-tagged SIRT1 (183 to 664 residues) expressed in Escherichia coli at 5 uM measured after 2 hrs in presence of NAD+ and trypsin by fluorescence assay
T4 sequence (whole entry): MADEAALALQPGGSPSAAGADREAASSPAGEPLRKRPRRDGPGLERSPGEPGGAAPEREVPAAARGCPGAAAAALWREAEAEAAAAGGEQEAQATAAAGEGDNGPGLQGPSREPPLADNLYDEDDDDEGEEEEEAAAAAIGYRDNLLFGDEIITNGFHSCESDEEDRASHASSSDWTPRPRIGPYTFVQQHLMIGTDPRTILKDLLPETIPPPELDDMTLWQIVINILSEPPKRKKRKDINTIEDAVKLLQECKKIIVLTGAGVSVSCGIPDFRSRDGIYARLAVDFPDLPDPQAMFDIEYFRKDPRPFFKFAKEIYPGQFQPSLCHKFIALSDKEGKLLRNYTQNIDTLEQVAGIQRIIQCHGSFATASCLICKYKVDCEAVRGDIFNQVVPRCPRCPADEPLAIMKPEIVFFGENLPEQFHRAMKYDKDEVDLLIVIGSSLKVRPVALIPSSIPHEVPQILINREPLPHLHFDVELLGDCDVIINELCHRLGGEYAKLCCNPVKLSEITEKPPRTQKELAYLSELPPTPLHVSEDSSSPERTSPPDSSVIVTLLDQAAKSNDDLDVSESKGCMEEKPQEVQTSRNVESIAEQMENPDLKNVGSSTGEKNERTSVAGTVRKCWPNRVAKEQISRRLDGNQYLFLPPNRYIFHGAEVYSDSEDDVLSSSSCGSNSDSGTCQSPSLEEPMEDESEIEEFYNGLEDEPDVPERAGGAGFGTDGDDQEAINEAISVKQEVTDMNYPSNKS

[10] = target: NAD-dependent protein deacylase sirtuin-5, mitochondrial (Homo sapiens) (UniProt Q9NXA8); assay: Substrate activity at human N-terminal His-tagged SIRT5 (34 to 302 residues) expressed in Escherichia coli at 0.5 uM measured after 2 hrs in presence of NAD+ and trypsin by fluorescence assay
[11] = target: T2, NAD-dependent protein deacetylase sirtuin-7 (Homo sapiens); assay: Substrate activity at human N-terminal His-tagged SIRT7 (68 to 354 residues) expressed in Escherichia coli at 0.5 uM measured after 2 hrs in presence of NAD+ and trypsin by fluorescence assay
[12] = target: T3, NAD-dependent protein deacetylase sirtuin-2 (Homo sapiens); assay: Substrate activity at human N-terminal His-tagged SIRT2 (56 to 356 residues) expressed in Escherichia coli at 0.5 uM measured after 2 hrs in presence of NAD+ and trypsin by fluorescence assay
[13] = target: T1, NAD-dependent protein deacetylase sirtuin-3, mitochondrial (Homo sapiens); assay: Substrate activity at human N-terminal His-tagged SIRT3 (122 to 391 residues) expressed in Escherichia coli at 50 uM measured after 2 hrs in presence of NAD+ and trypsin by fluorescence assay
[14] = target: NAD-dependent protein deacylase sirtuin-6 (Homo sapiens) (UniProt Q8N6T7); assay: Substrate activity at human N-terminal His-tagged SIRT6 (1 to 355 residues) expressed in Escherichia coli at 0.5 uM measured after 2 hrs in presence of NAD+ and trypsin by fluorescence assay
[15] = target: T3, NAD-dependent protein deacetylase sirtuin-2 (Homo sapiens); assay: Substrate activity at human N-terminal His-tagged SIRT2 (56 to 356 residues) expressed in Escherichia coli at 50 uM measured after 2 hrs in presence of NAD+ and trypsin by fluorescence assay
[16] = target: T4, NAD-dependent protein deacetylase sirtuin-1 (Homo sapiens); assay: Substrate activity at human N-terminal His-tagged SIRT1 (183 to 664 residues) expressed in Escherichia coli at 0.5 uM measured after 2 hrs in presence of NAD+ and trypsin by fluorescence assay
[17] = target: T4, NAD-dependent protein deacetylase sirtuin-1 (Homo sapiens); assay: Substrate activity at human N-terminal His-tagged SIRT1 (183 to 664 residues) expressed in Escherichia coli at 50 uM measured after 2 hrs in presence of NAD+ and trypsin by fluorescence assay
[18] = target: NAD-dependent protein deacylase sirtuin-5, mitochondrial (Homo sapiens) (UniProt Q9NXA8); assay: Substrate activity at human N-terminal His-tagged SIRT5 (34 to 302 residues) expressed in Escherichia coli at 50 uM measured after 2 hrs in presence of NAD+ and trypsin by fluorescence assay
[19] = target: NAD-dependent protein deacylase sirtuin-5, mitochondrial (Homo sapiens) (UniProt Q9NXA8); assay: Substrate activity at human N-terminal His-tagged SIRT5 (34 to 302 residues) expressed in Escherichia coli at 5 uM measured after 2 hrs in presence of NAD+ and trypsin by fluorescence assay

Sequence of NAD-dependent protein deacylase sirtuin-5, mitochondrial (Homo sapiens) (Q9NXA8 37-310 limits assumed): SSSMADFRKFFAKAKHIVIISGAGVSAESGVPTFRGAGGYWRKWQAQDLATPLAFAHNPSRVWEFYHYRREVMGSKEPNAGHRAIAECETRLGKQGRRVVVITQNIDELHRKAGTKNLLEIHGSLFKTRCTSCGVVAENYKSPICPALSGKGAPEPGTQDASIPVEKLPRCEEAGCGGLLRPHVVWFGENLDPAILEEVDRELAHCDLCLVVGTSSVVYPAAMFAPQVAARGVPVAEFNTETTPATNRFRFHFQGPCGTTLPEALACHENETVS
Sequence of NAD-dependent protein deacylase sirtuin-6 (Homo sapiens) (Q8N6T7 whole entry, the tested form may be a part): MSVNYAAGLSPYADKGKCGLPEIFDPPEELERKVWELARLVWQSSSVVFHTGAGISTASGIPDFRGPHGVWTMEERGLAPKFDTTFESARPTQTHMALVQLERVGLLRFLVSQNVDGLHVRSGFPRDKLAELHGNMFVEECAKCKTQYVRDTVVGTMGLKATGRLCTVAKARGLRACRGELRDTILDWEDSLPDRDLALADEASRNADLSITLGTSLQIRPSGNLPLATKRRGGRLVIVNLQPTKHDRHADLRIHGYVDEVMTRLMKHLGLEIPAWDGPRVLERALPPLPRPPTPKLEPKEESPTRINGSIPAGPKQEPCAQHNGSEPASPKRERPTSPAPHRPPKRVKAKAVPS

| Activity [1] | Activity [2] [RFU] | Activity [3] [RFU] | Activity [4] [RFU] | Activity [5] [RFU] | Activity [6] [RFU] | Activity [7] [RFU] | Activity [8] [RFU] | Activity [9] [RFU] | Activity [10] [RFU] | Activity [11] [RFU] | Activity [12] [RFU] | Activity [13] [RFU] | Activity [14] [RFU] | Activity [15] [RFU] | Activity [16] [RFU] | Activity [17] [RFU] | Activity [18] [RFU] | Activity [19] [RFU] | Structure (SMILES) |
| --- | --- | --- | --- | --- | --- | --- | --- | --- | --- | --- | --- | --- | --- | --- | --- | --- | --- | --- | --- |
| Active | 0.49 | 1.36 | 0.55 | 0.51 | 0.32 | 0.51 | 0.21 | 0.36 | 1.15 | 0.28 | 0.16 | 0.89 | 0.41 | 1.03 | 0.16 | 0.69 | 0.71 | 8.98 | CC(=O)N[C@@H](Cc1cnc[nH]1)C(=O)N[C@@H](Cc1ccccc1)C(=O)N[C@@H](CO)C(=O)N[C@@H](CCCCNC(=O)CCC(=O)O)C(=O)Nc1ccc2c(C)cc(=O)oc2c1 (Ac-HFSK(Suc)-{AMC}) |
| – | 0.4 | 0.3 | 0.51 | 1.5 | 0.62 | 1.5 | 1.03 | 0.89 | 0.24 | 0.34 | 0.26 | 1.79 | 0.51 | 2.6 | 0.26 | 2.28 | 1.54 | 0.36 | CCCCCCCCCC(=O)NCCCC[C@H](NC(=O)[C@H](CCCNC(=N)N)NC(=O)[C@H](CC(C)C)NC(=O)[C@H](CC(=O)O)NC(C)=O)C(=O)Nc1ccc2c(C)cc(=O)oc2c1 (Ac-DLRK(Decanoyl)-{AMC}) |
| – | 2.66 | 3.2 | 14.2 | 0.71 | 0.32 | 0.71 | 4.96 | 18.3 | 0.22 | 0.27 | 0.66 | 28.2 | 0.45 | 32.5 | 0.66 | 24.1 | 0.98 | 0.27 | CC[C@H](C)[C@H](NC(=O)[C@H](CC(C)C)NC(=O)[C@H](CCCNC(=N)N)NC(C)=O)C(=O)N[C@@H](CCCCNC(C)=O)C(=O)Nc1ccc2c(C)cc(=O)oc2c1 (Ac-RLIK(Ac)-{AMC}) |
